In the supplement of paper PMC11424490:

How the values were obtained:
Assay in all cases: combination cScore with adagrasib (Bliss gap around IC50) (%PoC); higher = stronger additive effect
NCI-H2122 = tested on: NCI-H2122
In short: (§1)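 The score averages the gap between expected and measured viability under Bliss independence, taken over a field around the IC50 of each single agent or, where an IC50 was not reached, at the highest concentrations. Viability came from CellTiter-Glo luminescence, normalised to vehicle wells as percent of control and fitted with four-parameter curves. NCI-H2122, NCI-H358 and SW837 cells were dosed in concentration matrices 24 h after seeding and grown for 72 h, or 144 h for SW837.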

NCI-H358 = tested on: NCI-H358
In short: as §1

SW837 = tested on: SW837
In short: as §1

| SMILES | combination cScore with adagrasib (NCI-H2122) | combination cScore with adagrasib (NCI-H358) | combination cScore with adagrasib (SW837) |
| --- | --- | --- | --- |
| C[C@H](Nc1ncnc2nc[nH]c12)c1cc2cccc(Cl)c2c(=O)n1-c1ccccc1 [Duvelisib] + C=C(F)C(=O)N1CCN(c2nc(OC[C@@H]3CCCN3C)nc3c2CCN(c2cccc4cccc(Cl)c24)C3)C[C@@H]1CC#N [adagrasib] | 15.9 | 4.67 | 12.8 |
| C#Cc1cccc(Nc2ncnc3cc(OCCOC)c(OCCOC)cc23)c1 [Erlotinib] + C=C(F)C(=O)N1CCN(c2nc(OC[C@@H]3CCCN3C)nc3c2CCN(c2cccc4cccc(Cl)c24)C3)C[C@@H]1CC#N [adagrasib] | 14.9 | 10 | 19.4 |
| COc1cc(Nc2ncc(F)c(Nc3ccc4c(n3)N(COP(=O)(O)O)C(=O)C(C)(C)O4)n2)cc(OC)c1OC [Fostamatinib] + C=C(F)C(=O)N1CCN(c2nc(OC[C@@H]3CCCN3C)nc3c2CCN(c2cccc4cccc(Cl)c24)C3)C[C@@H]1CC#N [adagrasib] | 17.4 | 3.37 | 7.91 |
| C[C@H](Nc1ccc2c(c1)OCCn1cc(N3C(=O)OC[C@H]3C(F)F)nc1-2)C(N)=O [GDC-0077] + C=C(F)C(=O)N1CCN(c2nc(OC[C@@H]3CCCN3C)nc3c2CCN(c2cccc4cccc(Cl)c24)C3)C[C@@H]1CC#N [adagrasib] | 22.2 | 5.51 | 5.13 |
| CCCc1cc(C)[nH]c(=O)c1CNC(=O)c1cc(-c2ccnc(N3CCN(C)CC3)c2)cc2c1cnn2C(C)C [GSK343] + C=C(F)C(=O)N1CCN(c2nc(OC[C@@H]3CCCN3C)nc3c2CCN(c2cccc4cccc(Cl)c24)C3)C[C@@H]1CC#N [adagrasib] | 15.8 | 4.64 | -0.82 |
| COc1cc2ncnc(Nc3ccc(F)c(Cl)c3)c2cc1OCCCN1CCOCC1 [Gefitinib] + C=C(F)C(=O)N1CCN(c2nc(OC[C@@H]3CCCN3C)nc3c2CCN(c2cccc4cccc(Cl)c24)C3)C[C@@H]1CC#N [adagrasib] | 15.8 | 12.5 | 23.8 |
| CCS(=O)(=O)Nc1ccc2c(c1)/C(=C(/Nc1ccc(CN3CCCCC3)cc1)c1ccccc1)C(=O)N2 [Hesperadin] + C=C(F)C(=O)N1CCN(c2nc(OC[C@@H]3CCCN3C)nc3c2CCN(c2cccc4cccc(Cl)c24)C3)C[C@@H]1CC#N [adagrasib] | 8.14 | 0.47 | 0.27 |
| O=C(O)CNC(=O)c1c(O)c2ccccc2n(Cc2ccccc2)c1=O [IOX2] + C=C(F)C(=O)N1CCN(c2nc(OC[C@@H]3CCCN3C)nc3c2CCN(c2cccc4cccc(Cl)c24)C3)C[C@@H]1CC#N [adagrasib] | 25.2 | 0.22 | 13.4 |
| C[C@H](NC(=O)c1c(N)nn2cccnc12)c1cc2cccc(C#Cc3cnn(C)c3)c2c(=O)n1-c1ccccc1 [IPI-549] + C=C(F)C(=O)N1CCN(c2nc(OC[C@@H]3CCCN3C)nc3c2CCN(c2cccc4cccc(Cl)c24)C3)C[C@@H]1CC#N [adagrasib] | 13 | -0.57 | 5.62 |
| C=CC(=O)N1CCC[C@@H](n2nc(-c3ccc(Oc4ccccc4)cc3)c3c(N)ncnc32)C1 [Ibrutinib] + C=C(F)C(=O)N1CCN(c2nc(OC[C@@H]3CCCN3C)nc3c2CCN(c2cccc4cccc(Cl)c24)C3)C[C@@H]1CC#N [adagrasib] | 26.9 | 9.97 | 2.16 |
| CS(=O)(=O)CCNCc1ccc(-c2ccc3ncnc(Nc4ccc(OCc5cccc(F)c5)c(Cl)c4)c3c2)o1 [Lapatinib] + C=C(F)C(=O)N1CCN(c2nc(OC[C@@H]3CCCN3C)nc3c2CCN(c2cccc4cccc(Cl)c24)C3)C[C@@H]1CC#N [adagrasib] | 18.6 | 11.3 | 11.2 |
| Cc1c(CN2CCC(Nc3ncnc4sc(CC(F)(F)F)cc34)CC2)ccc2[nH]c(C#N)cc12 [MI-463] + C=C(F)C(=O)N1CCN(c2nc(OC[C@@H]3CCCN3C)nc3c2CCN(c2cccc4cccc(Cl)c24)C3)C[C@@H]1CC#N [adagrasib] | 19.7 | 5.31 | 0.27 |
| NC1(c2ccc(-c3nc4ccn5c(=O)[nH]nc5c4cc3-c3ccccc3)cc2)CCC1 [MK-2206] + C=C(F)C(=O)N1CCN(c2nc(OC[C@@H]3CCCN3C)nc3c2CCN(c2cccc4cccc(Cl)c24)C3)C[C@@H]1CC#N [adagrasib] | 8 | 6.39 | 12.2 |
| CC(C)n1nc(-c2ccc3oc(N)nc3c2)c2c(N)ncnc21 [MLN-0128] + C=C(F)C(=O)N1CCN(c2nc(OC[C@@H]3CCCN3C)nc3c2CCN(c2cccc4cccc(Cl)c24)C3)C[C@@H]1CC#N [adagrasib] | 7.57 | 0.5 | 9.3 |
| O=C1c2c(O)ccc(O)c2C(=O)c2c(NCCNCCO)ccc(NCCNCCO)c21 [Mitoxantrone] + C=C(F)C(=O)N1CCN(c2nc(OC[C@@H]3CCCN3C)nc3c2CCN(c2cccc4cccc(Cl)c24)C3)C[C@@H]1CC#N [adagrasib] | 12.9 | 0.02 | 5.32 |
| COc1cc(N2CCC(N3CCN(C)CC3)CC2)ccc1Nc1ncc(Cl)c(Nc2ccccc2S(=O)(=O)C(C)C)n1 [NVP-TAE684] + C=C(F)C(=O)N1CCN(c2nc(OC[C@@H]3CCCN3C)nc3c2CCN(c2cccc4cccc(Cl)c24)C3)C[C@@H]1CC#N [adagrasib] | 12.8 | 3.66 | 23.6 |
| O=C(c1cc(Cc2n[nH]c(=O)c3ccccc23)ccc1F)N1CCN(C(=O)C2CC2)CC1 [Olaparib] + C=C(F)C(=O)N1CCN(c2nc(OC[C@@H]3CCCN3C)nc3c2CCN(c2cccc4cccc(Cl)c24)C3)C[C@@H]1CC#N [adagrasib] | 5.71 | 1.38 | 2.95 |
| C=CC(=O)Nc1cc(Nc2nccc(-c3cn(C)c4ccccc34)n2)c(OC)cc1N(C)CCN(C)C [Osimertinib] + C=C(F)C(=O)N1CCN(c2nc(OC[C@@H]3CCCN3C)nc3c2CCN(c2cccc4cccc(Cl)c24)C3)C[C@@H]1CC#N [adagrasib] | 10 | 8.16 | 26.1 |
| O=C(/C=C/N1C[C@H]2C[C@@H]1CN2c1ccccn1)c1ccccc1O [PFI-3] + C=C(F)C(=O)N1CCN(c2nc(OC[C@@H]3CCCN3C)nc3c2CCN(c2cccc4cccc(Cl)c24)C3)C[C@@H]1CC#N [adagrasib] | 15.8 | -3.19 | -2.21 |
| O=C(c1c(F)ccc(NS(=O)(=O)N2CC[C@@H](F)C2)c1F)c1c[nH]c2ncc(-c3cnc(C4CC4)nc3)cc12 [PLX8394] + C=C(F)C(=O)N1CCN(c2nc(OC[C@@H]3CCCN3C)nc3c2CCN(c2cccc4cccc(Cl)c24)C3)C[C@@H]1CC#N [adagrasib] | 17.5 | 0.57 | -2.23 |
| CC(=O)c1c(C)c2cnc(Nc3ccc(N4CCNCC4)cn3)nc2n(C2CCCC2)c1=O [Palbociclib] + C=C(F)C(=O)N1CCN(c2nc(OC[C@@H]3CCCN3C)nc3c2CCN(c2cccc4cccc(Cl)c24)C3)C[C@@H]1CC#N [adagrasib] | 8.54 | 2.62 | 19.2 |
| Cc1ccc(C(=O)Nc2ccc(CN3CCN(C)CC3)c(C(F)(F)F)c2)cc1C#Cc1cnc2cccnn12 [Ponatinib] + C=C(F)C(=O)N1CCN(c2nc(OC[C@@H]3CCCN3C)nc3c2CCN(c2cccc4cccc(Cl)c24)C3)C[C@@H]1CC#N [adagrasib] | 14.4 | 3.62 | -0.53 |
| CCc1nc(N)nc(N)c1-c1ccc(Cl)cc1 [Pyrimethamine] + C=C(F)C(=O)N1CCN(c2nc(OC[C@@H]3CCCN3C)nc3c2CCN(c2cccc4cccc(Cl)c24)C3)C[C@@H]1CC#N [adagrasib] | 15.2 | -2.05 | -3.37 |
| CC1(N)CCN(c2cnc(-c3cccc(Cl)c3Cl)c(N)n2)CC1 [SHP099] + C=C(F)C(=O)N1CCN(c2nc(OC[C@@H]3CCCN3C)nc3c2CCN(c2cccc4cccc(Cl)c24)C3)C[C@@H]1CC#N [adagrasib] | 19.4 | 1.39 | 14.3 |
| CCc1c2c(nc3ccc(O)cc13)-c1cc3c(c(=O)n1C2)COC(=O)[C@]3(O)CC [SN-38] + C=C(F)C(=O)N1CCN(c2nc(OC[C@@H]3CCCN3C)nc3c2CCN(c2cccc4cccc(Cl)c24)C3)C[C@@H]1CC#N [adagrasib] | 6.93 | -1.51 | -1.14 |
| C[C@@H]1OCC2(CCN(c3cnc(Sc4ccnc(N)c4Cl)c(N)n3)CC2)[C@@H]1N [TNO155] + C=C(F)C(=O)N1CCN(c2nc(OC[C@@H]3CCCN3C)nc3c2CCN(c2cccc4cccc(Cl)c24)C3)C[C@@H]1CC#N [adagrasib] | 49 | 9.32 | 31 |
